Values joined by “and” are separate entries in the source; they are usually repeats but may differ in a detail not shown here. Equal entries are not always repeated.
What was measured:
ABCA1 protein = assay: Cell fractionation: ABCA1 in plasma membrane and microsomal fractions of podocytes; assay type: cell-based, human; details: podocytes; Cpd A 5 µM, Cpd G 10 µM
Method: Lysates, or cell fractions were incubated in Laemmli buffer at 55 °C for 10 min under reducing conditions. A total of 30 μg of protein from cell lysates or one-third of the volume collected in cell fraction preparations was separated by SDS-PAGE in 4–20% gradient gels (Biorad) and proteins were then transferred to PVDF membranes. After blocking with 5% TBS-milk, membranes were probed with primary antibodies overnight at 4 °C. The following primary antibodies were used: mouse anti-ABCA1 (Abcam; 1:1000), rabbit anti-GAPDH antibody (Millipore; 1:10,000), mouse anti-actin (CP01, Millipore 1:10,000), anti-MEK, anti-ERp72, anti-V5 and anti-Na^+/K^+ ATPase (Cell Signaling; all 1:1000), and rabbit anti-OSBPL7 (Sigma; 1:1000). After washing, membranes were incubated with anti-rabbit or and anti-mouse IgG-HRP antibodies (Promega, 1:10,000). Signals were detected after incubation with Westernbright ECL HRP substrate (Advansta) and luminescence signals were captured with Azure C600 Gel Imaging workstation (Azure Biosystems Inc, USA) or X-ray films.
Differentiated podocytes were treated with compounds Cpd C (1 μM), Cpd A (5 μM), or Cpd G (10 μM) for 18 h, washed and then harvested in ice-cold PBS. Cells were centrifuged at 1000 × g for 5 min, the supernatant was carefully removed, and the pellet resuspended in hypotonic buffer (15 mM KCl, 1.5 mM MgCl2, 10 mM HEPES and 1 mM DTT) supplemented with a protease inhibitor cocktail (Roche). Cells were disrupted with a glass douncer, and sucrose was added to achieve final concentration of 227 mM. Cell lysates were centrifuged at 1000 × g for 30 min at 4 °C. The supernatant was then transferred to a new tube and centrifuged at 10,000 × g for 15 min at 4 °C. The pellet, containing the microsomal fraction was collected and the supernatant was transferred to a new tube and centrifuged at 100,000 × g for 1 h at 4 °C. The pelleted plasma membrane fraction was collected and the supernatant, containing the organelle-free cytosolic fraction, was concentrated in Vivaspin 500 filter columns. Western blot was performed using antibodies for ABCA1 and specific markers for each membrane fraction as described above. Na^+/K^+ ATPase was used to identify the plasma membrane fraction, ERp72 as a marker for the microsomal-enriched fraction, and MEK as the control for the non-membranous cytosolic fraction.

[1] = test system: Adriamycin (ADR)-induced nephropathy in Balb/c mice; assay: ADR nephropathy: kidney cortex lipids (cholesterol ester, total cholesterol, triglycerides, Oil-red O); assay type: in vivo, mouse
Method: OCT embedded kidney cortex samples were cryosectioned at 4 μm thickness and stained with Oil-Red O-isopropanol solution (Electron Microscopy Science, PA) diluted 6:4 in water, and then counterstained with Hematoxylin Harris Hg Free (VWR, PA). Sections were then evaluated using a light microscope (Olympus BX 41, Tokyo, Japan).
Snap frozen kidney cortex samples were homogenized in 2 mM potassium phosphate buffer, pH 7, (10 µl buffer/mg tissue) using a glass douncer on ice. 100 μl of the homogenate were mixed thoroughly with 1 ml of hexane:isopropanol (3:2;v:v) per volume of tissue homogenate. The aqueous (pellet) and organic (supernatant) phases were separated by centrifugation at 12,000 × g for 5 min. Pellets (aqueous phase) were dried, reconstituted in 8 M urea, 0.1% SDS, 0.1 M NaOH, and total proteins were quantified by the BCA method (Thermofisher). The organic phase was dried by exposure to nitrogen. Lipids were then reconstituted in 100 µl isopropanol:NP-40 (9:1;v:v). Triglyceride content was assayed using a colorimetric kit according to the manufacturer’s instructions (Cayman Chemical USA). Total cholesterol and CE content were assayed using an enzymatic fluorometric method. For total cholesterol measurement, extracts were diluted 1:100 in assay buffer (100 mM potassium phosphate, 50 mM NaCl, 5 mM cholic acid, 0.1% Triton […], pH 7.4) containing cholesterol oxidase (1 U/ml), cholesterol esterase (1 U/ml), horseradish peroxidase (1 U/ml), and Amplex Red (75 µM). The reactions were incubated at 37 °C for 30 min in a black opaque 96-well plate (Greiner) and fluorescence was measured in a microplate reader (Spectramax i3X, Molecular Devices) at 530 nm excitation and 580 emission.
For CE determination, 150 µl of the assay buffer described above, supplemented with bovine liver catalase (45 U/ml) and cholesterol oxidase (1 U/ml), was added to 25 μl of sample and incubated overnight at 37 °C to deplete free cholesterol leaving only cholesterol esters. Then, 75 µl of cholesterol ester detection reagent (1 U/ml cholesterol oxidase, 4 U/ml cholesterol esterase, 24 U/ml horseradish peroxidase, 300 µM Amplex Red) was added. The reaction was incubated at 37 °C for 30 min and the fluorescence signal was measured as described above. Internal standards included samples containing 1 mM of cholesterol and 5 μM of cholesterol oleate in order to verify the completeness of the enzymatic decomposition of free cholesterol as well as assay sensitivity and specificity.

[2] = test system: Adriamycin (ADR)-induced nephropathy in Balb/c mice; assay: ADR nephropathy: liver total cholesterol, cholesterol esters, triglycerides; assay type: in vivo, mouse; details: ADR model; individual animals
[3] = test system: Adriamycin (ADR)-induced nephropathy in Balb/c mice; assay: Adriamycin-induced nephropathy, main study: albumin/creatinine ratio and body weight
[4] = test system: Adriamycin (ADR)-induced nephropathy in Balb/c mice; assay: Adriamycin-induced nephropathy, dose-finding pilot study: ACR and body weight time course; details: for ACR in pilot study: days 7-28; for Body Weight / ACR in spot urine: ADR, individual mice
[5] = 28 days after ADR, Cpd G 100 mg/Kg
[6] = 30 mg/Kg/day, 7 days after inj, 30 mg/kg/day
[7] = 30 mg/Kg/day, 14 days after inj, 30 mg/kg/day
[8] = 30 mg/Kg/day, 21 days after inj, 30 mg/kg/day
[9] = 30 mg/Kg/day, 28 days after inj, 30 mg/kg/day
[10] = 100 mg/Kg/day, 7 days after inj, 100 mg/kg/day
[11] = 100 mg/Kg/day, 14 days after inj, 100 mg/kg/day
[12] = 100 mg/Kg/day, 21 days after inj, 100 mg/kg/day
[13] = 100 mg/Kg/day, 28 days after inj, 100 mg/kg/day

O=C(N[C@@H]1CCCC[C@H]1O)c1cnc(OCC(F)(F)F)c(-c2ccc(Cl)c(Cl)c2)c1 [Cpd G]
ABCA1 at the plasma membrane (ABCA1 protein): increased ABCA1 at the plasma membrane | ABCA1 in microsomal fractions (ABCA1 protein): did not increase ABCA1 in microsomal fractions | KIDNEY CORTEX TOTAL CHOLESTEROL ([1]; ADR model, individual animals): 79.82 nmol Chol./mg protein and 76.54 nmol Chol./mg protein and 118.96 nmol Chol./mg protein and 209.77 nmol Chol./mg protein and 137.06 nmol Chol./mg protein and 201.43 nmol Chol./mg protein and 118.77 nmol Chol./mg protein and 118.29 nmol Chol./mg protein and 88.73 nmol Chol./mg protein and 117.18 nmol Chol./mg protein | KIDNEY CORTEX TRIGLYCERIDES ([1]; ADR model, individual animals): 45.04 nmol Triglyceride /mg protein and 65 nmol Triglyceride /mg protein and 36.98 nmol Triglyceride /mg protein and 31.32 nmol Triglyceride /mg protein and 30.95 nmol Triglyceride /mg protein and 56.24 nmol Triglyceride /mg protein and 28.95 nmol Triglyceride /mg protein and 62.65 nmol Triglyceride /mg protein and 57.76 nmol Triglyceride /mg protein | Cholesterol ester content in kidneys from individual animals ([1]; ADR, day 28 of treatment, paired with ACR of same animal): 0.13 nmol CE/mg and 0.19 nmol CE/mg and 0.14 nmol CE/mg and 0.15 nmol CE/mg and 0.03 nmol CE/mg and 0.01 nmol CE/mg and 0.17 nmol CE/mg | Cholesterol esters in renal cortex, ADR model ([1]; Cpd G 28 days after ADR): reduced accumulation of cholesterol esters | Renal CE content, Median ([1]; mice challenged with ADR, treated for 28 days, group median): 0.975 nmol CE/ mg protein | Renal CE content (cholesterol ester, normalized to total proteins in kidney cortexes) ([1]; mice challenged with ADR, treated for 28 days, individual animals): 0.88 nmol CE/ mg protein and 1.16 nmol CE/ mg protein and 1.07 nmol CE/ mg protein and 1.59 nmol CE/ mg protein and 0.87 nmol CE/ mg protein and 0.53 nmol CE/ mg protein and 0.78 nmol CE/ mg protein and 0.58 nmol CE/ mg protein and 1.14 nmol CE/ mg protein and 1.47 nmol CE/ mg protein | LIVER CHOLESTEROL ESTERS [2]: 2.88 nmol CE/ mg protein and 6.03 nmol CE/ mg protein and 6.11 nmol CE/ mg protein and 1.54 nmol CE/ mg protein and 4.33 nmol CE/ mg protein and 2.97 nmol CE/ mg protein and 3.06 nmol CE/ mg protein | LIVER TOTAL CHOLESTEROL [2]: 118 nmol Cholesterol/ mg protein and 122 nmol Cholesterol/ mg protein and 97.7 nmol Cholesterol/ mg protein and 114 nmol Cholesterol/ mg protein and 146 nmol Cholesterol/ mg protein | LIVER TRIGLICERIDES [2]: 35 nmol Triglycerides/ mg protein and 30 nmol Triglycerides/ mg protein and 48.4 nmol Triglycerides/ mg protein and 51 nmol Triglycerides/ mg protein and 39 nmol Triglycerides/ mg protein | Effect on weight loss ([3]; 28 days after ADR): substantially reduced weight loss | Mice that showed no weight loss [3, 5]: 7 out of 10 | Weight loss of the remaining 3 mice [3, 5]: less than 5% | ACR, median ([3]; 28 days after ADR, Cpd A 30, Cpd G 100, Cpd C 10 mg/Kg, group median): 0.6 mg albumin/mg creatinine and 0.576 mg albumin/mg creatinine | Weight (d28) ([3]; animal weight when therapy finished, single animals): 20 and 21 and 20.5 and 16 and 19 and 17 | Weight Change (as % of weight at day 0), Median ([3]; day 28 after ADR, Cpd A 30, Cpd G 100, Cpd C 10 mg/Kg): 0% | Weight Change (as % of weight at day 0) ([3]; day 28 after ADR, Cpd A 30, Cpd G 100, Cpd C 10 mg/Kg, single animals): 5% and 2.5% and 0% and -9.1% and -5% | ACR values (mg Albumin / mg Creatinine) ([3]; spot urine 28 days after ADR, oral daily Cpd A 30, Cpd G 100, Cpd C 10 mg/Kg, single animals): 3.053 mg Albumin / mg Creatinine and 3.33 mg Albumin / mg Creatinine and 0.105 mg Albumin / mg Creatinine and 0.292 mg Albumin / mg Creatinine and 4.643 mg Albumin / mg Creatinine and 4.983 mg Albumin / mg Creatinine and 0.09 mg Albumin / mg Creatinine and 0.018 mg Albumin / mg Creatinine and 0.86 mg Albumin / mg Creatinine and 0.271 mg Albumin / mg Creatinine | Times lower ACR ([3]; vs ADR+V, 28 days, Cpd A 30, Cpd G 100 mg/kg/day): 30 times | ACR in pilot study ([4]; 30 mg/kg/day oral): to a lesser extent | ACR in pilot study ([4]; 100 mg/kg/day oral): significantly improved | Body Weight ([4]; 30 mg/Kg/day, 0 days after inj, 30 mg/kg/day): 20 grams and 18 grams and 19 grams (2×) and 23 grams | ACR in spot urine [4, 6]: 0.007 mg Albumin/ mg Creatinine in urine and 0.03 mg Albumin/ mg Creatinine in urine and 0.12 mg Albumin/ mg Creatinine in urine and 31.944 mg Albumin/ mg Creatinine in urine and 0.643 mg Albumin/ mg Creatinine in urine | Body Weight [4, 6]: 18 grams and 19 grams (3×) and 23 grams | ACR in spot urine [4, 7]: 51.688 mg Albumin/ mg Creatinine in urine and 33.252 mg Albumin/ mg Creatinine in urine and 84.069 mg Albumin/ mg Creatinine in urine and 36.836 mg Albumin/ mg Creatinine in urine and 5.571 mg Albumin/ mg Creatinine in urine | Body Weight [4, 7]: 18 grams and 19 grams (2×) and 16 grams and 23 grams | ACR in spot urine [4, 8]: 85.027 mg Albumin/ mg Creatinine in urine and 29.222 mg Albumin/ mg Creatinine in urine and 44.604 mg Albumin/ mg Creatinine in urine and 23.436 mg Albumin/ mg Creatinine in urine and 5.121 mg Albumin/ mg Creatinine in urine | Body Weight [4, 8]: 17 grams and 19 grams (2×) and 18 grams and 15 grams | ACR in spot urine [4, 9]: 34.615 mg Albumin/ mg Creatinine in urine and 3.13 mg Albumin/ mg Creatinine in urine and 6.059 mg Albumin/ mg Creatinine in urine and 7.143 mg Albumin/ mg Creatinine in urine and 2.473 mg Albumin/ mg Creatinine in urine | Body Weight [4, 9]: 16 grams and 20 grams (2×) and 17 grams and 15 grams | Body Weight ([4]; 100 mg/Kg/day, 0 days after inj, 100 mg/kg/day): 20 grams (3×) and 16 grams and 22 grams | ACR in spot urine [4, 10]: 0.061 mg Albumin/ mg Creatinine in urine and 0.016 mg Albumin/ mg Creatinine in urine and 0.015 mg Albumin/ mg Creatinine in urine and 0.233 mg Albumin/ mg Creatinine in urine and 9.666 mg Albumin/ mg Creatinine in urine | Body Weight [4, 10]: 19 grams (3×) and 16 grams and 22 grams | ACR in spot urine [4, 11]: 3.994 mg Albumin/ mg Creatinine in urine and 0.535 mg Albumin/ mg Creatinine in urine and 50.828 mg Albumin/ mg Creatinine in urine and 1.336 mg Albumin/ mg Creatinine in urine and 89.551 mg Albumin/ mg Creatinine in urine | Body Weight [4, 11]: 20 grams (2×) and 19 grams (2×) and 15 grams | ACR in spot urine [4, 12]: 0.238 mg Albumin/ mg Creatinine in urine and 0.124 mg Albumin/ mg Creatinine in urine and 0.794 mg Albumin/ mg Creatinine in urine and 8.14 mg Albumin/ mg Creatinine in urine | Body Weight [4, 12]: 20 grams (3×) and 15 grams and 19 grams | ACR in spot urine [4, 13]: 0.09 mg Albumin/ mg Creatinine in urine and 0.018 mg Albumin/ mg Creatinine in urine and 0.86 mg Albumin/ mg Creatinine in urine and 0.271 mg Albumin/ mg Creatinine in urine and 3.053 mg Albumin/ mg Creatinine in urine | Body Weight [4, 13]: 20 grams (2×) and 21 grams and 20.5 grams and 16 grams

— paper PMC8329197, “Compounds targeting OSBPL7 increase ABCA1-dependent cholesterol efflux preserving kidney function in two models of kidney disease” (Nature Communications, 2021)
